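Here, GI50 denotes the concentration required for 50% inhibition of growth. Definition used: TGI = concentration required for complete inhibition of growth.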
Columns and labels:
Assay in all cases: NCI tumour cell line growth inhibition, 384-well format
NCI-H226 lung = system: NCI-H226 lung
MDA-MB-231 breast = system: MDA-MB-231 breast
SF-539 CNS = system: SF-539 CNS
M14 melanoma = system: M14 melanoma
T-47D breast = system: T-47D breast
SNB-75 CNS = system: SNB-75 CNS
COLO 205 colon = system: COLO 205 colon
RXF 393 renal = system: RXF 393 renal
HS 578T breast = system: HS 578T breast
SNB-19 CNS = system: SNB-19 CNS
SK-MEL-28 melanoma = system: SK-MEL-28 melanoma
OVCAR-4 ovarian = system: OVCAR-4 ovarian
UACC-257 melanoma = system: UACC-257 melanoma
A549 NSCLC = system: A549 NSCLC
MOLT-4 leukemia = system: MOLT-4 leukemia
K-562 leukemia = system: K-562 leukemia
EKVX NSCLC = system: EKVX NSCLC
TK-10 renal = system: TK-10 renal
BT-549 breast = system: BT-549 breast
NCI-H460 NSCLC = system: NCI-H460 NSCLC
UO-31 renal = system: UO-31 renal
RPMI-8226 leukemia = system: RPMI-8226 leukemia
SF-268 CNS = system: SF-268 CNS
SN12C renal = system: SN12C renal
HOP-92 NSCLC = system: HOP-92 NSCLC
SK-MEL-5 melanoma = system: SK-MEL-5 melanoma
MALME-3M melanoma = system: MALME-3M melanoma
NCI-H522 lung = system: NCI-H522 lung
OVCAR-3 ovarian = system: OVCAR-3 ovarian
HOP-62 NSCLC = system: HOP-62 NSCLC
HCC-2998 colon = system: HCC-2998 colon
A498 renal = system: A498 renal
SF-295 CNS = system: SF-295 CNS
NCI-H322M lung = system: NCI-H322M lung
U251 glioblastoma = system: U251 glioblastoma
NCI-H23 lung = system: NCI-H23 lung
SW-620 colon = system: SW-620 colon
HL-60(TB) leukemia = system: HL-60(TB) leukemia
UACC-62 melanoma = system: UACC-62 melanoma
CAKI-1 renal = system: CAKI-1 renal
NCI/ADR-RES ovarian = system: NCI/ADR-RES ovarian
786-0 renal = system: 786-0 renal
HCT-15 colon = system: HCT-15 colon
ACHN renal = system: ACHN renal
MCF7 breast = system: MCF7 breast
KM12 colon = system: KM12 colon
IGROV1 ovarian = system: IGROV1 ovarian
HCT-116 colon = system: HCT-116 colon
PC-3 prostate = system: PC-3 prostate
LOX IMVI melanoma = system: LOX IMVI melanoma
OVCAR-8 ovarian = system: OVCAR-8 ovarian
MDA-MB-468 breast = system: MDA-MB-468 breast
SK-OV-3 ovarian = system: SK-OV-3 ovarian
DU-145 prostate = system: DU-145 prostate
HT29 colon = system: HT29 colon
CCRF-CEM leukemia = system: CCRF-CEM leukemia
SR leukemia = system: SR leukemia
MDA-MB-435 melanoma = system: MDA-MB-435 melanoma

C[C@@H]1COCCN1c1cc(C2([S@](C)(=N)=O)CC2)nc(-c2ccnc3[nH]ccc23)n1
GI50 (NCI-H226 lung): 16.3 µM | TGI (NCI-H226 lung): 59.3 µM | GI50 (MDA-MB-231 breast): 6.1 µM | TGI (MDA-MB-231 breast): > 100 µM | GI50 (SF-539 CNS): 0.64 µM | TGI (SF-539 CNS): 2.69 µM | GI50 (M14 melanoma): 0.896 µM | TGI (M14 melanoma): 3.26 µM | GI50 (T-47D breast): 18.7 µM | TGI (T-47D breast): > 100 µM | GI50 (SNB-75 CNS): 3.51 µM | TGI (SNB-75 CNS): > 100 µM | GI50 (COLO 205 colon): 7.72 µM | TGI (COLO 205 colon): 83.7 µM | GI50 (RXF 393 renal): 1.28 µM | TGI (RXF 393 renal): 3.93 µM | GI50 (HS 578T breast): 0.336 µM | TGI (HS 578T breast): 1.72 µM | GI50 (SNB-19 CNS): 4.39 µM | TGI (SNB-19 CNS): 43.4 µM | GI50 (SK-MEL-28 melanoma): 18.3 µM | TGI (SK-MEL-28 melanoma): 81.8 µM | GI50 (OVCAR-4 ovarian): 2.03 µM | TGI (OVCAR-4 ovarian): 31 µM | GI50 (UACC-257 melanoma): 22.4 µM | TGI (UACC-257 melanoma): > 100 µM | GI50 (A549 NSCLC): 3.1 µM | TGI (A549 NSCLC): 21.2 µM | GI50 (MOLT-4 leukemia): 0.342 µM | TGI (MOLT-4 leukemia): 1.52 µM | GI50 (K-562 leukemia): 1.63 µM | TGI (K-562 leukemia): 3.7 µM | GI50 (EKVX NSCLC): 6.53 µM | TGI (EKVX NSCLC): 59.9 µM | GI50 (TK-10 renal): 0.412 µM | TGI (TK-10 renal): 2.42 µM | GI50 (BT-549 breast): 0.573 µM | TGI (BT-549 breast): 3.51 µM | GI50 (NCI-H460 NSCLC): 0.455 µM | TGI (NCI-H460 NSCLC): 8.99 µM | GI50 (UO-31 renal): 2.82 µM | TGI (UO-31 renal): 25.5 µM | GI50 (RPMI-8226 leukemia): 0.694 µM | TGI (RPMI-8226 leukemia): 2.26 µM | GI50 (SF-268 CNS): 3.35 µM | TGI (SF-268 CNS): 46.3 µM | GI50 (SN12C renal): 4.38 µM | TGI (SN12C renal): 55.9 µM | GI50 (HOP-92 NSCLC): 1.16 µM | TGI (HOP-92 NSCLC): 6.77 µM | GI50 (SK-MEL-5 melanoma): 5.24 µM | TGI (SK-MEL-5 melanoma): 18.7 µM | GI50 (MALME-3M melanoma): 3.87 µM | TGI (MALME-3M melanoma): 18 µM | GI50 (NCI-H522 lung): 12.8 µM | TGI (NCI-H522 lung): 81.6 µM | GI50 (OVCAR-3 ovarian): 1.94 µM | TGI (OVCAR-3 ovarian): 23.8 µM | GI50 (HOP-62 NSCLC): 1.1 µM | TGI (HOP-62 NSCLC): 4.39 µM | GI50 (HCC-2998 colon): 0.231 µM | TGI (HCC-2998 colon): 1.6 µM | GI50 (A498 renal): 0.398 µM | TGI (A498 renal): 1.95 µM | GI50 (SF-295 CNS): 1.97 µM | TGI (SF-295 CNS): 7.74 µM | GI50 (NCI-H322M lung): 0.815 µM | TGI (NCI-H322M lung): 4.99 µM | GI50 (U251 glioblastoma): 3 µM | TGI (U251 glioblastoma): 41.8 µM | GI50 (NCI-H23 lung): 0.792 µM | TGI (NCI-H23 lung): 2.4 µM | GI50 (SW-620 colon): 4.88 µM | TGI (SW-620 colon): > 100 µM | GI50 (HL-60(TB) leukemia): 0.666 µM | TGI (HL-60(TB) leukemia): 1.91 µM | GI50 (UACC-62 melanoma): 2.43 µM | TGI (UACC-62 melanoma): 36.8 µM | GI50 (CAKI-1 renal): 2.74 µM | TGI (CAKI-1 renal): 22.8 µM | GI50 (NCI/ADR-RES ovarian): 25.4 µM | TGI (NCI/ADR-RES ovarian): > 100 µM | GI50 ([…]-0 renal): 0.718 µM | TGI (786-0 renal): 4.25 µM | GI50 (HCT-15 colon): 1.9 µM | TGI (HCT-15 colon): 56.1 µM | GI50 (ACHN renal): 0.826 µM | TGI (ACHN renal): 6.37 µM | GI50 (MCF7 breast): 0.431 µM | TGI (MCF7 breast): > 100 µM | GI50 (KM12 colon): 0.734 µM | TGI (KM12 colon): 16.5 µM | GI50 (IGROV1 ovarian): 1.87 µM | TGI (IGROV1 ovarian): 21.6 µM | GI50 (HCT-116 colon): 1.39 µM | TGI (HCT-116 colon): 14.6 µM | GI50 (PC-3 prostate): 6.97 µM | TGI (PC-3 prostate): > 100 µM | GI50 (LOX IMVI melanoma): 2.34 µM | TGI (LOX IMVI melanoma): 12.6 µM | GI50 (OVCAR-8 ovarian): 3.77 µM | TGI (OVCAR-8 ovarian): 16.3 µM | GI50 (MDA-MB-468 breast): 2.9 µM | TGI (MDA-MB-468 breast): 15.5 µM | GI50 (SK-OV-3 ovarian): 1.59 µM | TGI (SK-OV-3 ovarian): 10.5 µM | GI50 (DU-145 prostate): 2.8 µM | TGI (DU-145 prostate): > 100 µM | GI50 (HT29 colon): 3.17 µM | TGI (HT29 colon): 9.92 µM | GI50 (CCRF-CEM leukemia): 0.337 µM | TGI (CCRF-CEM leukemia): 1.4 µM | GI50 (SR leukemia): 0.0322 µM | TGI (SR leukemia): 0.125 µM | GI50 (MDA-MB-435 melanoma): 3.46 µM | TGI (MDA-MB-435 melanoma): > 100 µM
